Measured values published in patent publication US7700637B2, “Organic compounds” (Novartis AG, priority 2003, dated 2010).

Tests used:
[1] = target: T1, PPARα receptor (GST-hPPARα LBD) (Homo sapiens, UniProt Q07869); test: PPARα receptor functional binding assay (CARLA, TR-FRET); format: biochemical; conditions: SRC-1 peptide recruitment
T1 construct: made in house; host or cells: E. coli BL21 (DE3)
T1 sequence (Q07869 167-468): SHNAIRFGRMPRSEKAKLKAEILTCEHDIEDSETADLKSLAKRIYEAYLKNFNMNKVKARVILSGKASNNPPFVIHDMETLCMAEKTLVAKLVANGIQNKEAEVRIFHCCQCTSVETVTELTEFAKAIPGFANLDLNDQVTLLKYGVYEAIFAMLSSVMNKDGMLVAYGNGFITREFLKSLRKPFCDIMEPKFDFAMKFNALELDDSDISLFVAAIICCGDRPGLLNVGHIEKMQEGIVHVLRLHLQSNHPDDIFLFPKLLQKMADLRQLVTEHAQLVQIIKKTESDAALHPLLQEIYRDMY
Protocol: (§1) The in vitro functional binding to the PPARα, PPARδ and PPARγ receptors is determined as follows:
(§2) The functional binding assays for the PPARα, PPARδ and PPARγ receptors are a variation of the coactivator-dependent receptor ligand assay (CARLA) (Krey et al., Molecular Endocrinology 1997, 11, 779-791). The present CARLA assays use a TR-FRET detection method previously reviewed (Hemmila, J. Biomol. Screening 1999, 4, 303-307; Mathis, J. Biomol. Screening 1999, 4, 309-313). All assays included 3 nM of the glutathione-S-transferase (GST) fusion proteins of either the hPPARα ligand binding domain (LBD) (amino acids 167-468) (GST-hPPARα LBD), GST-hPPARδ LBD (amino acids 139-442) or GST-hPPARγ LBD (amino acids 175-476); 3 nM Eu-labelled anti-GST antibody (Wallac); 30 nM biotinylated steroid receptor coactivator-1 (SRC-1) peptide (an N-terminal biotinylated peptide, […], derived from amino acids 676-700 of SRC-1); and 10 nM streptavidin-labelled allophycocyanin (APC; Prozyme). […] This brings the Eu-labelled anti-GST antibody and the strepavidin-labelled APC in close proximity, thereby facilitating fluorescence energy transfer. […] After mixing all components, the reaction mixture stands for 3 h at RT before reading the TR-FRET signal on a Wallac Victor 2 plate reader (measuring the ratio of signals at 665 nm and 620 nm). […]

[2] = target: T2, PPARγ receptor (GST-hPPARγ LBD) (Homo sapiens, UniProt P37231); test: PPARγ receptor functional binding assay (CARLA, TR-FRET); format: biochemical; conditions: SRC-1 peptide recruitment
T2 construct: GST-hPPARγ LBD (amino acids 175-476); made in house; host or cells: E. coli BL21 (DE3)
T2 sequence (P37231 175-476 isoform P37231-2): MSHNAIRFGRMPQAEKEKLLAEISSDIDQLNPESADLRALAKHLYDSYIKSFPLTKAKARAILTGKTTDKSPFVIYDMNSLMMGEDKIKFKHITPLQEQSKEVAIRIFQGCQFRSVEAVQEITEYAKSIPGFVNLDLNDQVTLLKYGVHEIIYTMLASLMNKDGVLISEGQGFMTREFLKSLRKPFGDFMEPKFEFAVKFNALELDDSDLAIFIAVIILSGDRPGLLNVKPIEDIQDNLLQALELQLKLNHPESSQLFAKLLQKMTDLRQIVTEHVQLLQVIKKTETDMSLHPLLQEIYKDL
Protocol: as §1, §2

[3] = target: T3, PPARδ receptor (GST-hPPARδ LBD) (Homo sapiens, UniProt Q03181); test: PPARδ receptor functional binding assay (CARLA, TR-FRET); format: biochemical; conditions: SRC-1 peptide recruitment
T3 construct: GST-hPPARδ LBD (amino acids 139-442); made in house; host or cells: E. coli BL21 (DE3)
T3 sequence (Q03181 139-441 limits assumed): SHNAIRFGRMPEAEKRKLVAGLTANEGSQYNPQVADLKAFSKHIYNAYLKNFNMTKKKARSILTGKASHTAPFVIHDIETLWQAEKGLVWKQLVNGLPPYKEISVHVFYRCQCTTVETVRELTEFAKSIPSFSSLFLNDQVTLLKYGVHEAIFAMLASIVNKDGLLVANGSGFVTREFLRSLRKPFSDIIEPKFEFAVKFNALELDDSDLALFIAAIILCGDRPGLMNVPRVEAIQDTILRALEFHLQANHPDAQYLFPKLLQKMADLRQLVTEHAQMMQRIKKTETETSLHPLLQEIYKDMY
T3 sequence (Q15788 676-700 partner limits assumed): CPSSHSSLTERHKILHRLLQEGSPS
Protocol: as §1, §2

[4] = system: C57BL ob/ob mice; test: glucose and insulin lowering activity in vivo in ob/ob mice; conditions: daily dose of about 30 mg/kg p.o. in the ob/ob mice
Protocol: The glucose and insulin lowering activity in vivo can be evaluated as follows:
Adult male C57BL ob/ob mice (Jackson Lab, Bar Harbor, Me.) at the age of 11 weeks are housed six per cage in a reversed light cycle room (light on from 6:00 p.m. to 6:00 a.m.) and given access to Purina rodent chow and water ad libitum. On day 1 tail blood samples are taken at 8:00 am and plasma glucose levels are determined. The animals are randomly assigned to the control and compound groups. The means of plasma glucose values of the groups were matched. Animals are then orally dosed with vehicle (0.5% carboxymethyl-cellulose with 0.2% Tween-80) or compounds (at 30 mg/kg) in vehicle. The mice are dosed daily for a total of 3 days. On day 4 basal blood samples are taken. The plasma samples are analyzed for glucose concentrations using a YS12700 Dual Channel Biochemistry Analyzer (Yellow Springs Instrument Co., Yellow Springs, Ohio) and insulin concentrations using an ELISA assay.

Row | melting point | Structure (SMILES) | other results
1 | 167 to 170 °C | Cc1cccc(NS(=O)(=O)c2ccc(OCc3nc(-c4ccccc4)oc3C)cc2)c1C(=O)O [Example 1, 2-Methyl-6-[4-(5-methyl-2-phenyl-oxazol-4-ylmethoxy)-benzenesulfonylamino]-benzoic acid] | EC50 [1]: ~8 nM; EC50 [2]: ~5 nM; EC50 [3]: ~3500 nM; serum glucose levels [4]: significantly lowers; serum insulin levels [4]: significantly lowers
2 | 223 to 225 °C | Cc1oc(-c2ccccc2)nc1CCOc1ccc(S(=O)(=O)Nc2cc(Cl)ccc2C(=O)O)cc1 [Example 2, 4-Chloro-2-{4-[2-(5-methyl-2-phenyl-oxazol-4-yl)-ethoxy]-benzenesulfonylamino}-benzoic acid] | –
3 | 182 to 184 °C | Cc1oc(-c2ccccc2)nc1CSc1ccc(S(=O)(=O)Nc2ccccc2C(=O)O)cc1 [Example 3, 2-[4-(5-Methyl-2-phenyl-oxazol-4-ylmethylsulfanyl)-benzenesulfonylamino]-benzoic acid] | –
4 | 85 to 86 °C | O=C(NCCc1ccc(F)cc1)c1ccc(S(=O)(=O)Nc2ccccc2C(=O)O)cc1 [Example 7, 2-{4-[2-(4-Fluoro-phenyl)-ethylcarbamoyl]-benzenesulfonylamino}-benzoic acid] | –
5 | 241 to 242 °C | CCOc1ccc(CC(=O)Nc2ccc(S(=O)(=O)Nc3ccccc3C(=O)O)cc2)cc1 [Example 9, 2-{4-[2-(4-Ethoxy-phenyl)-acetylamino]-benzenesulfonylamino}-benzoic acid] | –
6 | 113 to 115 °C | COc1ccc(C(=O)O)c(OCc2ccc(OCCc3nc(-c4ccccc4)oc3C)cc2)c1 [Example 11, 4-Methoxy-2-{4-[2-(5-methyl-2-phenyl-oxazol-4-yl)-ethoxy]-benzyloxy}-benzoic acid] | –
7 | 135 to 137 °C | Cc1oc(-c2ccccc2)nc1CCOc1ccc(COc2cc3ccccc3cc2C(=O)O)cc1 [Example 14, 3-{4-[2-(5-Methyl-2-phenyl-oxazol-4-yl)-ethoxy]-benzyloxy}-naphthalene-2-carboxylic acid] | –
8 | 108 to 109 °C | CCCOc1ccc(C(=O)O)c(OCc2ccc(OCCc3nc(-c4ccccc4)oc3C)cc2)c1 [Example 15, 2-{4-[2-(5-Methyl-2-phenyl-oxazol-4-yl)-ethoxy]-benzyloxy}-4-propoxy-benzoic acid] | –
9 | 168 °C | Cc1oc(-c2ccccc2)nc1COc1cccc(COc2cc(Cl)ccc2C(=O)O)c1 [Example 17, 4-Chloro-2-[3-(5-methyl-2-phenyl-oxazol-4-ylmethoxy)-benzyloxy]-benzoic acid] | –
10 | 137 °C | Cc1oc(-c2ccccc2)nc1COCc1cccc(COc2cc(Cl)ccc2C(=O)O)c1 [Example 18, 4-Chloro-2-[3-(5-methyl-2-phenyl-oxazol-4-ylmethoxymethyl)-benzyloxy]-benzoic acid] | –
